Common to all, as to type: in vivo
One series has as its system weeds. As to the kind of experiment: Activity assay of compositions: soil sealing treatment (S), fresh weight inhibition and combined effect (Gowing method). As to conditions: 21 d. How it is done:
The required active ingredient B was purchased from a reagent company or a technical material manufacturer or synthesized by a conventional method. The technical materials were all dissolved with acetone solvents and diluted with aqueous solution of 0.1% Tween-80 emulsifier, which should be used immediately after dilution.
• Weeds were cultivated in a controllable sunlight greenhouse at 20 to 30° C., in natural light, and with relative humidity of 57% to 72%. […] The test soil was quantitatively filled to ¾ of the pot, and then watered from the bottom of the pot to completely wet the soil to saturation. The test weed seeds were accelerated to just germinate, and then evenly and quantitatively broadcasted on the soil surface, covered with 0.5-1 cm soil according to the sizes of the seeds, and ready for use 72 hours after sowing.
Each treatment was repeated 4 times. Four pots with 20 weed seeds sowed per pot were treated each time.
The well-sowed test materials were evenly placed on a platform with an area of 0.5 m^2, and foliage spraying was carried out by the 3WP-2000-type walking spray tower at a dosage of 450 kg/ha and a spray pressure of 0.3 MPa. After all the solution was sprayed, the air valve was closed. And 30 seconds later, the door of the spray tower was opened, and the nutritional bowl was taken out. Next, the air valve was opened, and the spray tube was cleaned by spraying 50 ml of water.
A method for investigating absolute numbers was employed. Whole seedlings of survival weeds were cut off along the soil surface with a blade, and the fresh weight of the weeds was weighed using an analytical balance. For dead weeds, the fresh weight thereof was zero.
The investigation was performed 21 days after the treatment for once in total.
The theoretical fresh weight inhibition rate of a mixed combination of each treatment was calculated by the Gowing method (E0=X+Y−X*Y/100). Then compared with the measured inhibition rate (E), the type of the combined effect of the combination of the two on weeds was evaluated, which was a synergistic effect when E−E0>10%; an antagonistic effect when E−E0<−10%; an additional effect when −10%≤E−E0≤10%. An optimal ratio was determined according to factors such as the actual control effects, characteristics of herbicides, balance of the formulation, etc. In the formula, X represents the fresh weight inhibition rate of the active ingredient A in a dosage of P; Y represents the fresh weight inhibition rate of the active ingredient B in a dosage of Q. The statistical results are shown in Table 4.

Series [1] has as its system monocotyledonous and dicotyledonous weeds. The experiment in a line: Pre-emergence test experiment (weeds). Also noted: key: 9: completely dead; 8: growth control rate is greater than or equal to 90% and less than 100%; 7: growth control rate is greater than or equal to 80% and less than 90%; 6: growth control rate is greater than or equal to 70% and less than 80%; growth control rate is greater than or equal to 50% and less than 70%; 4: growth control rate is greater than or equal to 30% and less than 50%; growth control rate is greater than or equal to 20% and less than 30%; growth control rate is greater than or equal to 10% and less than 20%; growth control rate is less than 10%; 0: no effect. As to conditions: 30 g a.i./ha.

The subject of the next series is major crops. The experiment in a line: Pre-emergence test experiment (crops). Also noted: key: 9: completely dead; 8: growth control rate is greater than or equal to 90% and less than 100%; 7: growth control rate is greater than or equal to 80% and less than 90%; 6: growth control rate is greater than or equal to 70% and less than 80%; growth control rate is greater than or equal to 50% and less than 70%; 4: growth control rate is greater than or equal to 30% and less than 50%; growth control rate is greater than or equal to 20% and less than 30%; growth control rate is greater than or equal to 10% and less than 20%; growth control rate is less than 10%; 0: no effect. As to conditions: 30 g a.i./ha.

The mark [2] stands for this setting: Commelina communis, B 30 g a.i./ha.
[3] abbreviates: Commelina communis, B 60 g a.i./ha.
[4] abbreviates: Lolium multiflorum, B 75 g a.i./ha.
Where [5] appears, read: Lolium multiflorum, B 150 g a.i./ha.
[6] abbreviates: Lolium multiflorum, B 30 g a.i./ha.
[7] abbreviates: Lolium multiflorum, B 60 g a.i./ha.
[8] abbreviates: Eclipta prostrata, B 150 g a.i./ha.
[9] abbreviates: Eclipta prostrata, B 22.5 g a.i./ha.
Where [10] appears, read: Eclipta prostrata, B 45 g a.i./ha.
Where [11] appears, read: Eclipta prostrata, B 300 g a.i./ha.

With `COC(=O)[C@@H](C)O/N=C/c1cc(-n2c(=O)cc(C(F)(F)F)n(C)c2=O)c(F)cc1Cl`, the “Control effect of B applied alone in a corresponding dose (%)” value (“Control effect of B applied alone … (%)” for short) is on record as 28.5% in the series on weeds (setting [2]) and 46.1% in the series with weeds (setting [3]).
Turning to `CCC[S@@+]([O-])c1c(C(F)(F)F)ccc(C(=O)Nc2nnc(C)o2)c1F`, the “Control effect of B applied alone … (%)” value with weeds (Ammannia arenaria, B 15 g a.i./ha) amounted to 26.1%; in the series with weeds (Ammannia arenaria, B 30 g a.i./ha), 43.8%.
Consider `CC1(C)CON(Cc2ccc(Cl)cc2Br)C1=O`, for which the “Control effect of B applied alone … (%)” value is 43.7% in the series on weeds (setting [4]) and 61.0% in the series with weeds (setting [5]).
Turning to `CC(C)C12CCC(C)(O1)C(OCc1c(F)cccc1Br)C2` (stereo not drawn), the entries for the “Control effect of B applied alone … (%)” value in the series with weeds (setting [6]) and with weeds (setting [7]) were 55.2% and 70.4%, respectively.
As to `C[C@@H](Oc1nc(F)c(Cl)c(N)c1Cl)C(=O)OCC1CCCO1` (stereo partly drawn), the “Control effect of B applied alone … (%)” value with weeds (Silene conoidea, B 75 g a.i./ha) stood at 48.0%; in the series with weeds (Silene conoidea, B 150 g a.i./ha), 54.2%.
With `C[C@@H](Oc1nc(F)c(Cl)c(N)c1Cl)C(=O)O`, the “Control effect of B applied alone … (%)” value with weeds (setting [5]) was 38.4%; with weeds (Lolium multiflorum, B 300 g a.i./ha) it was 53.7%.
For `Cc1ccccc1CO[C@@H]1C[C@@]2(C(C)C)CC[C@]1(C)O2` (racemic) [Cinmethylin], the “Control effect of B applied alone … (%)” value came out at 51.5% in the series with weeds (Eclipta prostrata, B 7.5 g a.i./ha) and 72.0% in the series on weeds (Eclipta prostrata, B 15 g a.i./ha).
Turning to `CCOC(=O)C1(C)CC(c2cc(-n3c(=O)cc(C(F)(F)F)n(C)c3=O)c(F)cc2Cl)=NO1` (stereo not drawn) [3-[2-chloro-5-[3,6-dihydro-3-methyl-2,6-dioxo-4-(trifluoromethyl)-1(2H)-pyrimidinyl]-4-fluorophenyl]-4,5-dihydro-5-methyl-5-isoxazolecarboxylic acid ethyl ester], the “Control effect of B applied alone … (%)” value worked out at 35.0% with weeds (setting [2]) and 47.3% in the series on weeds (setting [3]).
Regarding `CCOCN(C(=O)CCl)c1c(C)cccc1CC` [Acetochlor], the “Control effect of B applied alone … (%)” value in the series on weeds (Amaranthus retroflexus, B 150 g a.i./ha) was 40.2%; with weeds (Amaranthus retroflexus, B 300 g a.i./ha), 58.3%.
For the molecule `COP(=S)(OC)SCC(=O)N(c1ccc(Cl)cc1)C(C)(C)C` [Anilofos], the “Control effect of B applied alone … (%)” value in the series on weeds (Eclipta prostrata, B 75 g a.i./ha) amounted to 14.2%; in the series with weeds (setting [8]) it was 23.6%.
Take `CCNc1nc(Cl)nc(NC(C)C)n1` [Atrazine]: the “Control effect of B applied alone … (%)” value with weeds (Chloris virgata, B 300 g a.i./ha) is recorded as 40.1%; in the series on weeds (Chloris virgata, B 600 g a.i./ha) it was 58.9%.
`CS(=O)(=O)c1ccc(C(=O)C2=C(Sc3ccccc3)C3CCC(C3)C2=O)c(Cl)c1` (stereo not drawn) [Benzobicyclon]: the “Control effect of B applied alone … (%)” value is given as 49.2% with weeds (setting [9]) and 74.0% with weeds (setting [10]).
Consider `CC1(C)CON(Cc2ccc(Cl)cc2Cl)C1=O` [Bixlozone], for which the figures for the “Control effect of B applied alone … (%)” value in the series with weeds (setting [4]) and in the series with weeds (setting [5]) were 50.2% and 70.0%, respectively.
For `CCCCOCN(C(=O)CCl)c1c(CC)cccc1CC` [Butachlor], the results for the “Control effect of B applied alone … (%)” value with weeds (setting [8]) and in the series on weeds (setting [11]) were 37.2% and 66.8%, respectively.
The corresponding values for `CCC(C)Nc1c([N+](=O)[O-])cc(C(C)(C)C)cc1[N+](=O)[O-]` (stereo not drawn) [Butralin] are 47.0% and 65.3%.
Take `Cc1ccc(NC(=O)N(C)C)cc1Cl` [Chlorotoluron]: the “Control effect of B applied alone … (%)” value in the series on weeds (Lolium temulentum, B 375 g a.i./ha) amounted to 34.3%; in the series on weeds (Lolium temulentum, B 750 g a.i./ha), 59.3%.
In the case of `COCc1ccc(-n2cnc(C(F)(F)F)n2)nc1Oc1ccc(F)c(OC(F)F)c1` [Compound 147], in series [1], the “Pre-emergence activity level (growth control rate) on Amaranthus retroflexus” value was determined as 9; the “Pre-emergence activity level (growth control rate) on Descurainia sophia” value is recorded as 9; the “Pre-emergence activity level (growth control rate) on Digitaria sanguinalis” value was 8 (growth control rate is greater than or equal to 90% and less than 100%); the “Pre-emergence activity level (growth control rate) on Setaria viridis” value was found to be 9. In series [1], the “Pre-emergence activity level (growth control rate) on Solanum nigrum” value was 9 and the “Pre-emergence activity level (growth control rate) on Veronica” value was 9. For the same molecule, in the series on major crops, the “Pre-emergence plant damage level (growth control rate) on Corn” value (“Pre-emergence plant damage level … on Corn” below) was 0, the “Pre-emergence plant damage level (growth control rate) on Cotton” value (from here on “Pre-emergence plant damage level … on Cotton”) came to 0 and the “Pre-emergence plant damage level (growth control rate) on Soybean” value (“Pre-emergence plant damage level … on Soybean” for short) came out at 0.
For `COCc1ccc(-n2cnc(C(F)(F)F)n2)nc1Oc1cccc(OC(F)F)c1` [Compound 148], in series [1], the “Pre-emergence activity level (growth control rate) on Amaranthus retroflexus” value came to 9; the “Pre-emergence activity level (growth control rate) on Descurainia sophia” value stood at 9; the “Pre-emergence activity level (growth control rate) on Digitaria sanguinalis” value is 8 (growth control rate is greater than or equal to 90% and less than 100%); the “Pre-emergence activity level (growth control rate) on Setaria viridis” value came to 9. Also, in series [1], the “Pre-emergence activity level (growth control rate) on Solanum nigrum” value is given as 9 and the “Pre-emergence activity level (growth control rate) on Veronica” value was 9. Also, in the series with major crops, the “Pre-emergence plant damage level … on Corn” value is recorded as 0, the “Pre-emergence plant damage level … on Cotton” value is on record as 0 and the “Pre-emergence plant damage level … on Soybean” value is reported as 0.
Turning to `COCc1ccc(-n2cnc(C(F)(F)F)n2)nc1Oc1cccc(C)c1` [Compound 149], in series [1], the “Pre-emergence activity level (growth control rate) on Digitaria sanguinalis” value was 8 (growth control rate is greater than or equal to 90% and less than 100%); the “Pre-emergence activity level (growth control rate) on Setaria viridis” value is 8 (growth control rate is greater than or equal to 90% and less than 100%). For the same molecule, in the series with major crops, the “Pre-emergence plant damage level … on Corn” value worked out at 0, the “Pre-emergence plant damage level … on Cotton” value was 0 and the “Pre-emergence plant damage level … on Soybean” value is reported as 0.
Take `CCOC(=O)COc1ncccc1Oc1cc(-n2c(=O)cc(C(F)(F)F)n(C)c2=O)c(F)cc1Cl` [Epyrifenacil]: the entries for the “Control effect of B applied alone … (%)” value in the series with weeds (setting [2]) and in the series with weeds (setting [3]) were 38.8% and 50.5%, respectively.
Turning to `CCn1ncc(C(=O)c2ccc(S(C)(=O)=O)c(COCC(F)(F)F)c2Cl)c1OC(=O)c1cn(C)nc1C` [Fenpyrazone], the “Control effect of B applied alone … (%)” value with weeds (Amaranthus retroflexus, B 15 g a.i./ha) was found to be 13.5%; in the series on weeds (Amaranthus retroflexus, B 30 g a.i./ha), 33.7%.
`CCN(C(=O)n1nnn(-c2ccccc2Cl)c1=O)C1CCCCC1` [Fentrazamide]: the “Control effect of B applied alone … (%)” value with weeds (setting [9]) turned out to be 35.1%; in the series with weeds (setting [10]), 48.9%.
With `CC(C)N(C(=O)COc1nnc(C(F)(F)F)s1)c1ccc(F)cc1` [Flufenacet], the “Control effect of B applied alone … (%)” value with weeds (setting [6]) worked out at 46.2%; with weeds (setting [7]), 68.5%.

The record behind these values is patent US20260305610A1, “TRIAZOLE COMPOUND, AND PREPARATION METHOD THEREFOR, HERBICIDAL COMPOSITION AND USE THEREOF” (QINGDAO KINGAGROOT CHEMICAL COMPOUND CO., LTD., priority 2023, published 2026).
